Experimental data as given in PubChem BioAssay (NCI).
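Exposure lasted 48 hours, with cells grown in 96-well plates and compounds tested at five concentrations. TGI is the concentration that stops growth completely.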

Test system: BT-549 breast
Test: growth of human tumour cells (NCI), 48 h

Row | Compound | TGI [µM]
1 | Cc1ccc(S(=O)(=O)NC(=O)NC(C(=O)O)C(C)C)cc1 (stereo not drawn) | > 100
2 | Cc1nn(C(=O)c2ccccc2O)c2c1C(c1ccc3ccccc3c1O)SC(N)=N2 (stereo not drawn) | > 10
3 | COc1cc(OC)c2c(c1-c1ccc(C)cc1)CC(C)N(Cc1ccccc1)[C@H]2C (stereo partly drawn) | > 100
4 | Cc1ccc(-n2c(=O)c3nn4c(=O)n(-c5ccc(C)cc5)c(=O)c4nn3c2=O)cc1 | > 100
5 | CN(CCCCCl)P(=O)(OCC1=CC(=O)c2ccccc2C1=O)OC[C@H]1O[C@@H](n2cc(F)c(=O)[nH]c2=O)C[C@@H]1O (stereo partly drawn) | 22.3

Test system: SNB-75 CNS
Test: growth of human tumour cells (NCI), 48 h

Row | Compound | TGI [µM]
6 | Cc1ccc(S(=O)(=O)NC(=O)NC(C(=O)O)C(C)C)cc1 (stereo not drawn) | > 100
7 | Cc1nn(C(=O)c2ccccc2O)c2c1C(c1ccc3ccccc3c1O)SC(N)=N2 (stereo not drawn) | > 10
8 | COc1cc(OC)c2c(c1-c1ccc(C)cc1)CC(C)N(Cc1ccccc1)[C@H]2C (stereo partly drawn) | > 100
9 | Cc1ccc(-n2c(=O)c3nn4c(=O)n(-c5ccc(C)cc5)c(=O)c4nn3c2=O)cc1 | > 100
10 | CN(CCCCCl)P(=O)(OCC1=CC(=O)c2ccccc2C1=O)OC[C@H]1O[C@@H](n2cc(F)c(=O)[nH]c2=O)C[C@@H]1O (stereo partly drawn) | 0.418

Test system: UACC-62 melanoma
Test: growth of human tumour cells (NCI), 48 h

Row | Compound | TGI [µM]
11 | Cc1ccc(S(=O)(=O)NC(=O)NC(C(=O)O)C(C)C)cc1 (stereo not drawn) | > 100
12 | Cc1nn(C(=O)c2ccccc2O)c2c1C(c1ccc3ccccc3c1O)SC(N)=N2 (stereo not drawn) | 4.63
13 | COc1cc(OC)c2c(c1-c1ccc(C)cc1)CC(C)N(Cc1ccccc1)[C@H]2C (stereo partly drawn) | > 100
14 | Cc1ccc(-n2c(=O)c3nn4c(=O)n(-c5ccc(C)cc5)c(=O)c4nn3c2=O)cc1 | > 100
15 | CN(CCCCCl)P(=O)(OCC1=CC(=O)c2ccccc2C1=O)OC[C@H]1O[C@@H](n2cc(F)c(=O)[nH]c2=O)C[C@@H]1O (stereo partly drawn) | 1.93

Test system: MALME-3M melanoma
Test: growth of human tumour cells (NCI), 48 h

Row | Compound | TGI [µM]
16 | Cc1ccc(S(=O)(=O)NC(=O)NC(C(=O)O)C(C)C)cc1 (stereo not drawn) | > 100
17 | Cc1nn(C(=O)c2ccccc2O)c2c1C(c1ccc3ccccc3c1O)SC(N)=N2 (stereo not drawn) | > 10
18 | COc1cc(OC)c2c(c1-c1ccc(C)cc1)CC(C)N(Cc1ccccc1)[C@H]2C (stereo partly drawn) | 53.2
19 | Cc1ccc(-n2c(=O)c3nn4c(=O)n(-c5ccc(C)cc5)c(=O)c4nn3c2=O)cc1 | > 100
20 | CN(CCCCCl)P(=O)(OCC1=CC(=O)c2ccccc2C1=O)OC[C@H]1O[C@@H](n2cc(F)c(=O)[nH]c2=O)C[C@@H]1O (stereo partly drawn) | 2.79

Test system: LOX IMVI melanoma
Test: growth of human tumour cells (NCI), 48 h

Row | Compound | TGI [µM]
21 | Cc1ccc(S(=O)(=O)NC(=O)NC(C(=O)O)C(C)C)cc1 (stereo not drawn) | > 100
22 | Cc1nn(C(=O)c2ccccc2O)c2c1C(c1ccc3ccccc3c1O)SC(N)=N2 (stereo not drawn) | > 10
23 | COc1cc(OC)c2c(c1-c1ccc(C)cc1)CC(C)N(Cc1ccccc1)[C@H]2C (stereo partly drawn) | > 100
24 | Cc1ccc(-n2c(=O)c3nn4c(=O)n(-c5ccc(C)cc5)c(=O)c4nn3c2=O)cc1 | > 100
25 | CN(CCCCCl)P(=O)(OCC1=CC(=O)c2ccccc2C1=O)OC[C@H]1O[C@@H](n2cc(F)c(=O)[nH]c2=O)C[C@@H]1O (stereo partly drawn) | 10.7

Test system: A549 NSCLC
Test: growth of human tumour cells (NCI), 48 h

Row | Compound | TGI [µM]
26 | Cc1ccc(S(=O)(=O)NC(=O)NC(C(=O)O)C(C)C)cc1 (stereo not drawn) | > 100
27 | Cc1nn(C(=O)c2ccccc2O)c2c1C(c1ccc3ccccc3c1O)SC(N)=N2 (stereo not drawn) | > 10
28 | COc1cc(OC)c2c(c1-c1ccc(C)cc1)CC(C)N(Cc1ccccc1)[C@H]2C (stereo partly drawn) | > 100
29 | Cc1ccc(-n2c(=O)c3nn4c(=O)n(-c5ccc(C)cc5)c(=O)c4nn3c2=O)cc1 | > 100
30 | CN(CCCCCl)P(=O)(OCC1=CC(=O)c2ccccc2C1=O)OC[C@H]1O[C@@H](n2cc(F)c(=O)[nH]c2=O)C[C@@H]1O (stereo partly drawn) | 0.553

Test system: SR leukemia
Test: growth of human tumour cells (NCI), 48 h

Row | Compound | TGI [µM]
31 | Cc1ccc(S(=O)(=O)NC(=O)NC(C(=O)O)C(C)C)cc1 (stereo not drawn) | > 100
32 | Cc1nn(C(=O)c2ccccc2O)c2c1C(c1ccc3ccccc3c1O)SC(N)=N2 (stereo not drawn) | > 10
33 | COc1cc(OC)c2c(c1-c1ccc(C)cc1)CC(C)N(Cc1ccccc1)[C@H]2C (stereo partly drawn) | > 100
